Measurements: US20240024403A1, “Compositions and Methods for Managing Weight” (Unigen, Inc., priority 2012, published 2024)

Assay: High fat diet induced obesity (DIO) mouse model
Assay type: in vivo, C57CL/6J mice
Conditions: for Total Body Weight / Body Weight: in g (unit assumed)
Procedure: C57CL/6J mice aged 4-6 weeks (Korea Research Institute of Bioscience & Biotechnology, Ohchang, Korea) were housed in Polycarbonate cages (five mice per cage) in a room with a 12 hr:12 hr light-dark cycle and an ambient temperature of 24° C. All the mice were fed a commercial chow diet for 1 week after arrival in the animal facility. Mice were then divided into normal and obesity groups and fed with normal diet (ND) and high fat diets (HFD) respectively. The HFD group was divided into multiple treatment groups: a high fat diet vehicle group (HFD), an orlistat (purchased as OTC drug Alli®) positive control treatment group (ORI, 40 mg/kg of animal weight, 2 times/day) and optionally a sibutramine positive control treatment group (10 mg/kg, 1 time/day). The HFD contained 340 g of fat/kg of HFD (310 g lard plus 30 g soybean oil; Harlan Laboratories, USA). The HFD was formulated to provide 60% of the total energy generated by the diet from fat by replacing carbohydrate energy with lard and soybean oil, whereas the normal diet (ND) group was fed a diet providing only 18% of the total diet energy from fat(Harlan Laboratories, USA).
Body weight was measured once each week and feed intake was measured twice per week. At the end of the experimental period, following a 12 hr. fasting period, the animals were anesthetized with ether, and blood was drawn from the abdominal vein. Liver and kidney and adipose tissues (epididymal, retroperitoneal, perirenal adipose tissues) were removed from each animal, rinsed with physiological saline, and weighed. Serum concentrations of glucose, total cholesterol, triglycerides, and LDL-cholesterol were determined using automatic analyzer (INTEGRA 400, Roche, Germany). Statistical significance of test results was measured using the Student's t-test.

[1] = week 3, mice fed a high fat diet, Mutamba fractions 250 mg/kg oral 2 times per day, mean
[2] = week 4, DIO mice, oral twice daily, mg/kg/day: ORI 40, Combo (Composition 1A) 800, Magnolia 100, Yerba Mate 500, Morus 200
[3] = week 4, DIO mice, combination (5:1) 1200 mg/kg twice a day by gavage, group mean
[4] = week 4, mice fed a high fat diet, Mutamba fractions 250 mg/kg oral 2 times per day, mean
[5] = week 5, DIO mice, oral twice daily, mg/kg/day: ORI 40, Combo (Composition 1A) 800, Magnolia 100, Yerba Mate 500, Morus 200
[6] = week 5, DIO mice, combination (5:1) 1200 mg/kg twice a day by gavage, group mean
[7] = week 5, mice fed a high fat diet, Mutamba fractions 250 mg/kg oral 2 times per day, mean
[8] = week 6, DIO mice, oral twice daily, mg/kg/day: ORI 40, Combo (Composition 1A) 800, Magnolia 100, Yerba Mate 500, Morus 200
[9] = week 6, DIO mice, combination (5:1) 1200 mg/kg twice a day by gavage, group mean
[10] = week 6, mice fed a high fat diet, Mutamba fractions 250 mg/kg oral 2 times per day, mean
[11] = week 7, DIO mice, oral twice daily, mg/kg/day: ORI 40, Combo (Composition 1A) 800, Magnolia 100, Yerba Mate 500, Morus 200
[12] = week 7, DIO mice, combination (5:1) 1200 mg/kg twice a day by gavage, group mean
[13] = week 7, mice fed a high fat diet, Mutamba fractions 250 mg/kg oral 2 times per day, mean
[14] = week 8, DIO mice, oral twice daily, mg/kg/day: ORI 40, Combo (Composition 1A) 800, Magnolia 100, Yerba Mate 500, Morus 200
[15] = week 8, mice fed a high fat diet, Mutamba fractions 250 mg/kg oral 2 times per day, mean

CCCCCCCCCCC[C@@H](C[C@@H]1OC(=O)[C@H]1CCCCCC)OC(=O)[C@H](CC(C)C)NC=O [ORI, orlistat]
Total Body Weight (week 3, DIO mice, combination (5:1) 1200 mg/kg twice a day by gavage, group mean): 35.12 | Total Body Weight (week 3, ORI 40 mg/kg, DIO mice (Table 52)): 37.41 | Total Body Weight (week 3, ORI 40 mg/kg, DIO mice): 35.66 | Body Weight Gain (week 3, ORI 40 mg/kg, mice fed high fat diet): −6.70 | Body Weight Gain [1]: −2.63 | Body Weight [1]: 37.14 | Weight Gain (week 3, orlistat 40 mg/kg oral): −5.27 | Weight Gain [2]: −3.84 | Total Body Weight [2]: 36.38 | Body Weight Gain (week 4, DIO mice, SIB 10 mg/kg, ORI 40 mg/kg, Mutamba extract 32 (G1) 1000 mg/kg/day oral, mean): −2.35 | Body Weight Gain (week 4, DIO mice, SIB 10 mg/kg, ORI 40 mg/kg, Mutamba extract 33-2 G1 1000 mg/kg, mean): −1.28 | Weight Gain (week 4, DIO mice, combination (1:1) 2000 mg/kg twice a day, group mean): −2.61 | Weight Gain [3]: −2.61 | Total Body Weight [3]: 35.84 | Total Body Weight (week 4, ORI 40 mg/kg, DIO mice (Table 52)): 37.60 | Total Body Weight (week 4, ORI 40 mg/kg, DIO mice): 37.28 | Body Weight Gain (week 4, ORI 40 mg/kg, mice fed high fat diet): −5.01 | Body Weight Gain [4]: −1.28 | Body Weight [4]: 38.49 | Weight Gain (week 4, orlistat 40 mg/kg oral): −3.47 | Weight Gain [5]: −2.57 | Total Body Weight [5]: 37.65 | Body Weight Gain (week 5, DIO mice, SIB 10 mg/kg, ORI 40 mg/kg, Mutamba extract 32 (G1) 1000 mg/kg/day oral, mean): −1.84 | Body Weight Gain (week 5, DIO mice, SIB 10 mg/kg, ORI 40 mg/kg, Mutamba extract 33-2 G1 1000 mg/kg, mean): 0.43 | Weight Gain (week 5, DIO mice, combination (1:1) 2000 mg/kg twice a day, group mean): −2.04 | Weight Gain [6]: −2.04 | Total Body Weight [6]: 36.41 | Total Body Weight (week 5, ORI 40 mg/kg, DIO mice (Table 52)): 38.12 | Total Body Weight (week 5, ORI 40 mg/kg, DIO mice): 38.57 | Body Weight Gain (week 5, ORI 40 mg/kg, mice fed high fat diet): −3.81 | Body Weight Gain [7]: 0.43 | Body Weight [7]: 40.19 | Weight Gain (week 5, orlistat 40 mg/kg oral): −2.34 | Weight Gain [8]: −1.47 | Total Body Weight [8]: 38.75 | Body Weight Gain (week 6, DIO mice, SIB 10 mg/kg, ORI 40 mg/kg, Mutamba extract 32 (G1) 1000 mg/kg/day oral, mean): 0.08 | Body Weight Gain (week 6, DIO mice, SIB 10 mg/kg, ORI 40 mg/kg, Mutamba extract 33-2 G1 1000 mg/kg, mean): 3.52 | Weight Gain (week 6, DIO mice, combination (1:1) 2000 mg/kg twice a day, group mean): −1.65 | Weight Gain [9]: −1.65 | Total Body Weight [9]: 36.80 | Total Body Weight (week 6, ORI 40 mg/kg, DIO mice (Table 52)): 40.04 | Total Body Weight (week 6, ORI 40 mg/kg, DIO mice): 40.03 | Body Weight Gain (week 6, ORI 40 mg/kg, mice fed high fat diet): −2.36 | Body Weight Gain [10]: 3.52 | Body Weight [10]: 43.28 | Weight Gain (week 6, orlistat 40 mg/kg oral): −1.08 | Weight Gain [11]: −0.26 | Total Body Weight [11]: 39.96 | Body Weight Gain (week 7, DIO mice, SIB 10 mg/kg, ORI 40 mg/kg, Mutamba extract 32 (G1) 1000 mg/kg/day oral, mean): 1.81 | Body Weight Gain (week 7, DIO mice, SIB 10 mg/kg, ORI 40 mg/kg, Mutamba extract 33-2 G1 1000 mg/kg, mean): 3.72 | Weight Gain [12]: −0.07 | Total Body Weight [12]: 38.38 | Total Body Weight (week 7, ORI 40 mg/kg, DIO mice (Table 52)): 41.77 | Total Body Weight (week 7, ORI 40 mg/kg, DIO mice): 40.91 | Body Weight Gain (week 7, ORI 40 mg/kg, mice fed high fat diet): −1.42 | Body Weight Gain [13]: 3.72 | Body Weight [13]: 43.49 | Weight Gain (week 7, orlistat 40 mg/kg oral): 0.02 | Weight Gain [14]: −0.23 | Total Body Weight [14]: 39.99 | Body Weight Gain (week 8, DIO mice, SIB 10 mg/kg, ORI 40 mg/kg, Mutamba extract 32 (G1) 1000 mg/kg/day oral, mean): 2.10 | Body Weight Gain (week 8, DIO mice, SIB 10 mg/kg, ORI 40 mg/kg, Mutamba extract 33-2 G1 1000 mg/kg, mean): 5.13 | Total Body Weight (week 8, ORI 40 mg/kg, DIO mice (Table 52)): 42.06 | Body Weight Gain [15]: 5.13 | Body Weight [15]: 44.90
